{"source": "paper PMC2918917", "about": "(New journal of chemistry = Nouveau journal de chimie, 2010)", "key": {"[1]": {"tested_on": "microRNA-mediated translational repression", "settings": "cited from earlier work; for enhancement of microRNA-mediated translational repression: Drosophila melanogaster embryos extract"}, "human DcpS": {"biological_target": "T1, human DcpS (Homo sapiens, UniProt Q96C86)", "T1 sequence (Q96C86 1-337)": "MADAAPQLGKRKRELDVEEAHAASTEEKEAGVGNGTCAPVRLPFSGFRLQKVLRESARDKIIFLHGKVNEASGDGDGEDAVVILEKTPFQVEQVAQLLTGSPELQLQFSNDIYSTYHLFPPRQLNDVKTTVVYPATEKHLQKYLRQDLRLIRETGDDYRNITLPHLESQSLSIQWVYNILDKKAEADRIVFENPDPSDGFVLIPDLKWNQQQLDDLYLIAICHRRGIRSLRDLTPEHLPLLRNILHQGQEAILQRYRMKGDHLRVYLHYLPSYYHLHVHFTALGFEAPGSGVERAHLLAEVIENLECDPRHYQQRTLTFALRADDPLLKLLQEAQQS", "test": "hDcpS assay: enzymatic hydrolysis of cap analogs monitored by RP HPLC", "settings": "positive control; cleavage to m^7GMP and GDP; amount of DcpS adjusted"}, "hDcp2": {"biological_target": "hDcp2 (Homo sapiens, UniProt Q8IU60)", "test": "In vitro decapping of capped mRNA by hDcp2", "assay_type": "biochemical", "settings": "mRNA capped with D1 plus D2 mixture; preliminary results, unpublished work [21]"}, "cultured cells": {"tested_on": "cultured cells", "settings": "cited from earlier work"}, "[2]": {"tested_on": "rabbit reticulocyte lysate (RRL) system", "settings": "cited from earlier work"}, "[3]": {"tested_on": "cultured mouse mammary cells", "settings": "cited from earlier work"}}, "note": "Like-named read-outs stand apart in the source and are kept apart here.", "data": [{"compound": "COC1C(O)C(COP(=O)(O)OP(=O)(O)OP(O)(=S)OCC2OC(n3cnc4c(=O)[nH]c(N)nc43)C(O)C2O)OC1n1c[n+](C)c2c(=O)[nH]c(N)nc21", "note": "(stereo not drawn) [m2^7,2’-OGpppSG (D2)]", "values": [{"measurement": "enhancement of microRNA-mediated translational repression", "setting": "[1]", "result": 2, "unit": "fold"}, {"measurement": "enhancement of microRNA-mediated translational repression", "setting": "[1]; listed as m2^7,2'-OGpppSG (D2)", "result": "~ 2 fold"}, {"measurement": "effect on general cap-dependent translation", "setting": "[1]", "result": "no change"}, {"measurement": "effect on general cap-dependent translation", "setting": "[1]; listed as m2^7,2'-OGpppSG (D2)", "result": "neutral"}]}, {"compound": "Cn1c[n+]([C@@H]2O[C@H](COP(=O)(O)OP(=O)([O-])OP(=O)(O)OC[C@H]3O[C@@H](n4cnc5c(=O)[nH]c(N)nc54)[C@H](O)[C@@H]3O)[C@@H](O)[C@H]2O)c2nc(N)[nH]c(=O)c21", "note": "[m^7GpppG]", "values": [{"measurement": "time to complete cleavage by DcpS", "setting": "human DcpS", "result": "less than 15 min"}]}, {"compound": "P1-(7,2'-O-dimethylguanosin-5'-y l ) P4-guanosin-5'-yl (3-thiotetraphosphate) [compound 2]", "values": [{"measurement": "susceptibility of capped mRNA to in vitro decapping by hDcp2", "setting": "hDcp2", "result": "resistant"}]}, {"compound": "m2^7,3'-OGppCH2pG", "values": [{"measurement": "half-life of capped mRNA transfected into cultured cells", "setting": "cultured cells", "result": "prolonged half-life"}, {"measurement": "translation of capped mRNA versus regular ARCA", "setting": "cultured cells", "result": "translated even less efficiently"}]}, {"compound": "COC1C(COP(=O)([O-])OP(=O)(O)OP(=O)(O)OP(=O)(O)OP(=O)(O)OCC2OC(n3cnc4c(=O)[nH]c(N)nc43)C(O)C2O)OC(n2c[n+](C)c3c(=O)[nH]c(N)nc32)C1O", "note": "(stereo not drawn) [m2^7,3'-OGp5G]", "values": [{"measurement": "translation efficiency of mRNA capped with pentaphosphate analog", "setting": "[2]", "result": "not effective in promoting translation"}]}, {"compound": "CO[C@@H]1[C@H](O)[C@@H](COP(=O)(O)OP(O)(=S)OP(=O)(O)OC[C@H]2O[C@@H](n3cnc4c(=O)[nH]c(N)nc43)[C@H](O)[C@@H]2O)O[C@H]1n1c[n+](C)c2c(=O)[nH]c(N)nc21", "note": "(stereo partly drawn) [m2^7,2’-OGppSpG (D2)]", "values": [{"measurement": "translation efficiency relative to m2^7,2’-OGpppG-capped mRNA", "setting": "[3]", "result": 2.4}]}, {"compound": "C[n+]1cn(C2OC(COP(=O)([O-])OP(=O)(O)OP(=O)(O)OP(=O)(O)OP(=O)(O)OP(=O)(O)OCC3OC(n4cnc5c(=O)[nH]c(N)nc54)C(O)C3O)C(O)C2O)c2nc(N)[nH]c(=O)c21", "note": "(stereo not drawn) [m^7Gp6G]", "values": [{"measurement": "enhancement of microRNA-mediated translational repression", "setting": "[1]", "result": "~ 2 fold"}, {"measurement": "effect on general cap-dependent translation", "setting": "[1]", "result": "neutral"}]}]}
